According to US8604065B2, “Pyridyl cyanoguanidine derivatives” (priority 2010, dated 2013):

Tests used:
Type in all cases: cell-based
[1] = test system: Human pancreatic cancer AsPC-1; assay: growth inhibition on AsPC-1 in vitro (MTT); conditions: ASPC1, Aspc-1 cells, 72 h
Method: (§1) Human pancreatic cancer AsPC-1; human acute lymphocytic leukemia taxol-resistant cell strain CCRF-CEM/T; human adenocarcinoma of lung NCI-H1975; human pharyngeal squamous cell carcinoma Fadu; human B lymphoma BA25; human B lymphoma BA91; human B lymphoma BA127; human stomach cancer NCI-N87; human non-small cell lung cancer A549; human liver cancer SK-Hep-1; human lung cancer NCI-H460; human prostate cancer PC-3.
(§2) The following cells were cultured under the following conditions, respectively:
(§3) 37° C., 5% CO2, saturated humidity.
(§4) The cells were cultured until confluence, digested with a pancreatic enzyme, and prepared into a single cell suspension in a complete medium.
(§5) The cells were seeded in a 96-well microplate at a suitable concentration (AsPC-1: 8000 cells/well; NCI-H1975: 5000 cells/well; Fadu: 6000 cells/well; NCI-N87: 15000 cells/well), cultured overnight to render them adherent to the bottom.
(§6) A 2 mM stock solution was prepared by dissolving test compounds in DMSO, diluted with a base medium (without serum) to form a 20 μM or 2 μM 10× working solution which was diluted using a gradient of 1/3. During dilution, the concentration of DMSO was kept consistent. There were 8 dose groups in total. 20 μl of 10× compound working solution was added to the experimental well until the final volume of each well was 200 μl and the concentration of DMSO was 1‰. Meanwhile, a solvent control group (PC) without compounds (PC) and a solvent control group without cells and compounds (NC) were prepared. The cells were further cultured for 72 h.
(§7) Subsequently, the activity of cells was measured with a microculture tetrozolium (MTT method). Specifically, the medium in well was sucked out, a base medium containing 0.5 mg/ml MTT was added in an amount of 100 μl/well, and then the cell was further cultured for 3 h. The medium containing MTT was once again sucked out, 100 μl/well of DMSO was added to dissolve MTT crystal, and OD value at 490 nm was measured with an ELISA analyzer.
(§8) Inhibition rate of a compound was calculated as follows: Inhibition rate=[1−(OD value of administration group−OD value of NC)/(OD value of PC−OD value of NC)]×100%
(§9) Inhibition rates were then plotted versus the logarithm of compound concentrations, and fitted with Logistic 4 parameter equation. The compound concentration corresponding to 50% inhibition rate in the curve was IC50 value.

[2] = test system: human acute lymphocytic leukemia taxol-resistant cell strain CCRF-CEM/T; assay: growth inhibition on CCRF-CEM/T in vitro (MTT); conditions: CCRF-CEM-T cells, 72 h
Method: as §1
(§10) The cells were cultured under the following conditions:
(§11) complete medium: 90% RPMI1640, 10% FBS; 37° C., 5% CO2, saturated humidity.
(§12) After cultured to the end of the logarithmic growth phase, the cells were diluted with the complete medium to the required concentration.
(§13) The cells were seeded in a 96-well microplate at a suitable concentration (CCRF-CEM/T: 20000 cells/well; BA25: 20000 cells/well; BA91: 60000 cells/well; BA127: 60000 cells/well).
as §6, with “total. 12” for “total. 20”, “was 120” for “was 200”, “group” for “group (PC)”
(§14) Subsequently, the activity of cells was measured with a microculture tetrozolium (MTT method). Specifically, 30 μl/well of PBS containing 2.5 mg/ml MTT was added, and then the cells were cultured for another 3 h. 100 μl/well of triple lysis buffer (10% SDS, 5% isobutanol, 0.012 M HCl) was added, and the mixture was kept at room temperature to dissolve MTT crystal. OD value at 570 nm was measured with an ELISA analyzer.
(§15) Inhibition rate of a compound was calculated as follows:
(§16) Inhibition rate=[1−(OD value of administration group−OD value of NC)/(OD value of PC−OD value of NC)]×100%
as §9

[3] = test system: human non-small cell lung cancer A549; assay: growth inhibition on A549 in vitro; conditions: A549 cells, read-out: growth inhibition effects IC50 (nM) A549
Source text: as §1

[4] = test system: human prostate cancer PC-3; assay: growth inhibition on PC-3 in vitro; conditions: PC-3 cells, read-out: growth inhibition effects IC50 (nM) PC-3
Source text: as §1

[5] = test system: human stomach cancer NCI-N87; assay: growth inhibition on NCI-N87 in vitro (MTT); conditions: NCI-N87 cells, 72 h, read-out: growth inhibition effects IC50 (nM) NCI-N87
Method: as §1, §2, §3, §4, §5, §6
(§17) Subsequently, the activity of cells was measured with a microculture tetrozolium (MTT method). […] The medium containing MTT was once again sucked out, 100 μl/well of DMSO was added to dissolve MTT crystal, and OD value at 490 nm was measured with an ELISA analyzer.
(§18) Inhibition rate of a compound was calculated as follows: Inhibition rate=[1−(OD value of administration group−OD value of NC)/(OD value of PC−OD value of NC)]×100% […]

[6] = test system: human liver cancer SK-Hep-1; assay: growth inhibition on SK-Hep-1 in vitro; conditions: SK-HEP1, SK-Hep-1 cells, read-out: growth inhibition effects IC50 (nM) SK-Hep-1
Source text: as §1

[7] = test system: human lung cancer NCI-H460; assay: growth inhibition on NCI-H460 in vitro; conditions: NCI-H460 cells, read-out: growth inhibition effects IC50 (nM) NCI-H460
Source text: as §1

[8] = test system: human pharyngeal squamous cell carcinoma Fadu; assay: growth inhibition on FaDu in vitro (MTT); conditions: FaDu cells, 72 h
Method: as §1, §2, §3, §4, §5, §6, §7, §8, §9

[9] = test system: human adenocarcinoma of lung NCI-H1975; assay: growth inhibition on NCI-H1975 in vitro (MTT); conditions: NCI-H1975 cells, 72 h, read-out: growth inhibition effects IC50 (nM) NCI-H1975
Method: as §1, §2, §3, §4, §5, §6, §17, §18

[10] = test system: human B lymphoma BA91; assay: growth inhibition on BA91 in vitro (MTT); conditions: BA91 cells, 72 h
Method: as §1, §10, §11, §12, §13
as §6, with “total. 12” for “total. 20”, “was 120” for “was 200”, “group” for “group (PC)”
as §14, §15, §16, §9

[11] = test system: human B lymphoma BA127; assay: growth inhibition on BA127 in vitro (MTT); conditions: BA127 cells, 72 h
Method: as §1, §10, §11, §12, §13
as §6, with “total. 12” for “total. 20”, “was 120” for “was 200”, “group” for “group (PC)”
as §14, §15, §16, §9

[12] = test system: human B lymphoma BA25; assay: growth inhibition on BA25 in vitro (MTT); conditions: BA25 cells, 72 h
Method: as §1, §10, §11, §12, §13
as §6, with “total. 12” for “total. 20”, “was 120” for “was 200”, “group” for “group (PC)”
as §14, §15, §16, §9

Row | IC50 [1] [nM] | IC50 [2] [nM] | IC50 [3] [nM] | IC50 [4] [nM] | IC50 [5] [nM] | IC50 [7] [nM] | IC50 [8] [nM] | IC50 [9] [nM] | IC50 [10] [nM] | IC50 [11] [nM] | IC50 [12] [nM] | Compound | IC50 [6] [nM]
1 | 135 | 113 |  |  |  |  |  |  |  |  |  | COc1ccccc1OCCCCCN/C(=N\C#N)Nc1ccncc1 [Control 1, N-cyano-N′-(5-(o-methoxyphenoxy)pentyl)-N″-(4-pyridyl) guanidine, reference compound] | 
2 | 7.2 | 6.3 |  |  |  |  |  |  |  |  |  | N#C/N=C(\NCCCCCCOc1ccccc1Cl)Nc1ccncc1 [Control 3, N-cyano-N′-(6-(2-chlorophenoxy)hexyl)-N″-(4-pyridyl) guanidine, reference compound] | 
3 | 7.3 | 6.9 | 9.9 | 2.4 | 6.6 | 38 |  | 15.5 |  |  |  | COc1ccccc1OCCCCCCN/C(=N\C#N)Nc1ccncc1 [Control 4, N-cyano-N′-(6-(2-methoxyphenoxy)hexyl)-N″-(4-pyridyl) guanidine] | 
4 |  | 2.2 |  |  |  |  | 1.2 |  | 2 | 1.4 |  | N#C/N=C(\NCCCCCCOc1cc(Cl)ccc1OC(F)F)Nc1ccncc1 [Example 1, N-cyano-N′-(6-(2-difluoromethoxy-5-chlorophenoxy)hexyl)-N″-(4-pyridyl) guanidine] | 
5 |  |  |  |  |  |  |  |  | 2.7 | 4.3 | 4.4 | N#C/N=C(\NCCCCCCOc1ccccc1OC(F)(F)F)Nc1cccnc1 [Example 2, N-cyano-N′-(6-(o-trifluoromethoxyphenoxy)hexyl)-N″-(3-pyridyl) guanidine] | 
6 |  |  |  |  |  |  |  |  |  |  | 12 | N#C/N=C(\NCCCCCCOc1ccc(OC(F)(F)F)cc1)Nc1ccncc1 [Example 4, N-cyano-N′-(6-(p-trifluoromethoxyphenoxy)hexyl)-N″-(4-pyridyl) guanidine] | 
7 |  |  |  |  |  |  |  |  | 6.9 | 6.1 | 7.3 | N#C/N=C(\NCCCCCOc1ccccc1OC(F)(F)F)Nc1ccncc1 [Example 5, N-cyano-N′-(5-(o-trifluoromethoxyphenoxy)pentyl)-N″-(4-pyridyl) guanidine] | 
8 |  |  |  |  |  |  |  |  | 9.6 | 9.3 | 5.6 | N#C/N=C(\NCCCCCCCCOc1ccccc1OC(F)(F)F)Nc1ccncc1 [Example 6, N-cyano-N′-(8-(o-trifluoromethoxyphenoxy)octyl)-N″-(4-pyridyl) guanidine] | 
9 |  | 5.1 |  |  |  |  | 4.7 |  | 5.8 | 6.9 | 6.3 | N#C/N=C(\NCCCCCCOc1ccc(Br)cc1OC(F)(F)F)Nc1ccncc1 [Example 7, N-cyano-N′-(6-(2-trifluoromethoxy-4-bromophenoxy)hexyl)-N″-(4-pyridyl)guanidine] | 
10 |  |  |  |  |  |  | 2.4 |  | 3.5 | 13 |  | CC(C)(C)c1ccc(OC(F)F)c(OCCCCCCN/C(=N\C#N)Nc2ccncc2)c1 [Example 10, N-cyano-N′-(6-(2-difluoromethoxy-5-tert-butylphenoxy)hexyl)-N″-(4-pyridyl)guanidine] | 
11 | 2.1 | 1.6 | 3 | 0.2 | 1.5 | 8 | 1.5 | 5.3 | 1.5 | 1.5 | 1 | N#C/N=C(\NCCCCCCOc1ccccc1OC(F)(F)F)Nc1ccncc1 [Example 11, N-cyano-N′-(6-(o-trifluoromethoxyphenoxy)hexyl)-N″-(4-pyridyl) guanidine] | 2.3
12 | 2.3 | 2.3 |  |  |  |  | 2.8 |  | < 1 | 3.2 |  | N#C/N=C(\NCCCCCCOc1ccc(Cl)cc1OC(F)F)Nc1ccncc1 [Example 12, N-cyano-N′-(6-(2-difluoromethoxy-4-chlorophenoxy)hexyl)-N″-(4-pyridyl)guanidine] | 
13 | 0.9 | 2.2 |  |  |  |  | 1.3 |  | < 1 | 1.3 |  | Cc1ccc(OC(F)F)c(OCCCCCCN/C(=N\C#N)Nc2ccncc2)c1 [Example 16, N-cyano-N′-(6-(5-methyl-2-difluoromethoxyphenoxy)hexyl)-N″-(4-pyridyl)guanidine] | 

Row | Compound | IC50 [1] [nM] | IC50 [2] [nM] | IC50 [3] [nM] | IC50 [4] [nM] | IC50 [5] [nM] | IC50 [7] [nM] | IC50 [8] [nM] | IC50 [9] [nM] | IC50 [10] [nM] | IC50 [11] [nM] | IC50 [12] [nM] | IC50 [6] [nM]
14 | N#C/N=C(\NCCCCCCOc1ccc(Cl)cc1)Nc1ccncc1 [Control 2, N-cyano-N′-(6-(4-chlorophenoxy)hexyl)-N″-(4-pyridyl) guanidine] | 19 | 22 | 22 | 2.5 | 14 | 83 | 11.7 | 54 |  |  |  | 16
